Measured values reported in patent US6531476B1, “Piperazine derivatives inhibiting human immunodeficiency virus replication” (Universite Paris 7 - Denis Diderot, priority 1998, dated 2003).
Where two headings read alike, the source gives them in different places.

Key:
[1] = system: HIV-1/Ba-L; assay: Inhibition of HIV replication in monocyte-derived macrophages (reverse transcriptase activity in culture supernatants); type: cell-based; details: dose-effect curve FIG. 1
Description: a) Production and Culturing of the Macrophages
The macrophages were obtained by differentiation of monocytes which were themselves isolated from peripheral blood mononuclear cells.
To do this, the peripheral blood mononuclear cells were separated from the other elements of the blood by centrifugation on a ficoll gradient (MSL 2000, from Eurobio) and washed twice in RPMI 1640 medium (from Boehringer Mannheim). The monocytes were isolated from these mononuclear cells by counter-current elutriation. The fractions collected were analyzed using a cell counter-analyzer (from Coulter) and the cells corresponding to each fraction were phenotyped and then analyzed using a flow cytometer (FACS, from Becton Dickinson). The purity of the monocytes thus collected is at least equal to 95%.
These monocytes were then suspended in a culture medium (medium A below) comprising RPMI 1640 medium (from Boehringer Mannheim) supplemented with 10% fetal calf serum (from Boehringer Mannheim) decomplemented beforehand by treatment at 56° C. for 30 minutes, L-glutamine (2 mM) and a solution containing 100 μg/ml of 3 antibiotics: penicillin, streptomycin and neomycin (PSN, from Life Technologies), at a rate of 1 million monocytes per ml of culture medium. […]

[2] = system: HIV-1/Ba-L; assay: Various procedures for treating monocyte-derived macrophages (before/after infection, maintained or not); type: cell-based; details: Human immunodeficiency virus 1, BAL, Macrophage, triplicate, read-out: percentage of inhibition (I) of the viral replication
Protocol: Various procedures for treating monocyte-derived macrophages with the piperazine derivatives in accordance with the invention were tested using a protocol similar to that described in Example 14.
In these tests, however, the macrophage cultures were divided into three groups:
a first group (group 1 below) in which the macrophages were treated with the piperazine derivatives 24 hours before being infected with HIV (i.e. on D3) and the treatment was maintained up to D28, as described in Example 14,
a second group (group 2 below) in which the macrophages were treated 24 hours after having been infected with HIV (i.e. on D5) and the treatment was maintained up to D28, and
a third group (group 3 below) in which the macrophages were treated 24 hours before being infected with HIV (i.e. on D3), but the treatment was not subsequently maintained.
In all cases, the piperazine derivatives were used at a dose of 100 μM and the tests were carried out in triplicate.

[3] = system: monocyte-derived macrophages; assay: Cytotoxicity: neutral red viability test on monocyte-derived macrophage cultures; type: cell-based; details: 100 μM, FIG. 3
Protocol: The cytotoxicity of the piperazine derivatives in accordance with the invention was evaluated by measuring, by means of three different tests:
a test with neutral red, the viability of peripheral blood mononuclear cell cultures and of monocyte-derived macrophage cultures treated with the piperazine derivatives in accordance with the invention and by comparing the results obtained with those observed for “control” cultures, i.e. peripheral blood mononuclear cell cultures or monocyte-derived macrophage cultures prepared under the same conditions but in the absence of any treatment with said piperazine derivatives.
The neutral red test is also a test which is used on adherent cells and which was used to measure the effects of the piperazine derivatives in accordance with the invention on the monocyte-derived macrophages. […]
In all cases, the viability of the peripheral blood mononuclear cells and of the monocyte-derived macrophages was measured before culturing them, and then at each renewal of the culture media.

melting point	SMILES	doses at which inhibitory activity on HIV replication is shown [1]	inhibition at 100 µM ([2]; 24 h, Group 2: treated 24 hours after infection (D5), maintained up to D28, average ± standard deviation)	inhibition at 100 µM ([2]; Group 1: treated 24 hours before infection (D3), maintained up to D28, average ± standard deviation)	inhibition at 100 µM ([2]; Group 3: treated 24 hours before infection (D3), treatment not maintained, average ± standard deviation)	viability of monocyte-derived macrophage cultures versus control cultures (number of live cells) [3]
105.8 °C	CCN(CC)C(=O)OCC1CN(C(=S)c2cc(OC)c(OC)c(OC)c2)CCN1C(=O)c1cc(OC)c(OC)c(OC)c1 (stereo not shown)	–	–	–	–	–
134 °C	CCN(CC)C(=O)OCC1CN(C(=O)c2cc(OC)c(OC)c(OC)c2)CCN1Cc1ccccc1.Cl (stereo not shown) [Example 8, 1-benzyl-4-(3′,4′,5′-trimethoxybenzoyl)-2-(N,N-diethylaminocarbonyloxymethyl)piperazine hydrochloride]	–	–	–	–	–
–	CCN(CC)C(=O)OCC1CN(C(=O)c2cc(OC)c(OC)c(OC)c2)CCN1C(=O)c1cc(OC)c(OC)c(OC)c1 (stereo not shown) [Example 2, 1,4-bis(3′,4′,5′-trimethoxybenzoyl)-2-(N,N-diethylaminocarbonyloxymethyl)piperazine]	above 1 μM	88 ± 12%	91 ± 2%	73 ± 2%	no significant difference
